The test system of the assay is U937 FPR-DeltaST, VLA-4 LDV-FITC binding, flow cytometry. Briefly: FPR-triggered VLA-4 ligand binding change in U937, RGS protein inhibitor project, cell-based, U937 FPR-DeltaST, LDV-FITC, flow cytometry (AID 1993). The conditions noted are these: at 10 µM; stronger effect = higher value. In general terms: In flow cytometry, cells or beads pass a laser one at a time.

These results are taken from PubChem BioAssay AID1993 (NMMLSC, 2009).

The source made the active and inactive calls.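 The calls were made as follows: active = fluorescence area over time at least a quarter above or below the solvent control area (some results past the limit were not filed as active); inactive = the rest.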

With `O=c1c2ccccc2sn1-c1cc(S(=O)(=O)N2CCOCC2)ccc1N1CCCC1`, the AUC was 19600 (inactive).

Take `O=C(NCCCN1CCOCC1)c1sc2cc([N+](=O)[O-])ccc2c1Cl`: the AUC was 27100.

`O=C1C(Cl)=C(N2CCCCC2)C(=O)C(Cl)=C1c1cnc(N2CCCCC2)s1`: the AUC is 2540 (inactive).

Consider `Cc1ccc(NC(=O)Cn2sc3nc(C)cc(C)c3c2=O)c(Cl)c1`, for which the AUC is 23500 (inactive).

As to `CCN(CC)S(=O)(=O)c1cccc(C(=O)N/N=C/c2ccc(O)c(O)c2O)c1`, the AUC was 26500.

For `NS(=O)(=O)c1ccc(N/N=C/c2ccc(O)c(O)c2O)c([N+](=O)[O-])c1`, the AUC is 20500 (inactive).

In the case of `Cc1cc(C)c2c(=O)n(CC(=O)Nc3cccc(F)c3)sc2n1`, the AUC was 25000 (inactive).

As for `CCC(=O)NC1=C(Cl)C(=O)C(NC(=O)CC)=C(Cl)C1=O`, the AUC is 11600 (inactive).

As for `Cc1cccc(N2CCN(C(=O)Cn3sc4nc(C)cc(C)c4c3=O)CC2C)c1` (configuration not stated), the AUC is 25500.

Consider `CCOC(=O)C1CCCN(C(=O)Cn2sc3nc(C)cc(C)c3c2=O)C1` (configuration not stated), for which the AUC was 27900.

Consider `Nc1c(C(=O)NCC2CCCO2)sc2nc3c(c(-c4ccco4)c12)CC/C3=C\c1ccco1` (configuration not stated), for which the AUC was 455 (inactive).

Consider `O=c1c2ccccc2sn1-c1ccccc1`, for which the AUC is 18300 (inactive).

For the compound `Cc1cc(C)c2c(=O)n(CC(=O)Nc3ccc(Cl)cc3)sc2n1`, the AUC was 22800 (inactive).

Regarding `Cc1[nH]n(-c2ccccc2)c(=S)c1C=Nc1cccc([N+](=O)[O-])c1`, the AUC is 26500.

In the case of `COc1ccc(OC)c(CCNC(=O)Cn2sc3nc(C)cc(C)c3c2=O)c1`, the AUC was 26600.

As for `CC(NC(=O)c1sc2cc([N+](=O)[O-])ccc2c1Cl)C(C)(C)C` (configuration not stated), the AUC is 29100.

With `O=c1c2ccccc2sn1-c1ccc(S(=O)(=O)N2CCCC2)cc1`, the AUC was 19400 (inactive).
